This is an account of results in patent US9034846B2, “Use of cyclodextrin for treatment and prevention of bronchial inflammatory diseases” (UNIVERSITE DE LIEGE, priority 2004, dated 2015).

For experiment [1], the system named is OVA exposed mice. The experiment is described as follows: Bronchoalveolar lavage differential cell counts, OVA mouse model of asthma. The experiment is classed as in vivo. As to conditions: for Eosinophils (%) in BAL / Epithelial cells (%) in BAL / Lymphocytes (%) in BAL / Macrophages (%) in BAL / Neutrophils (%) in BAL / Total cells (10^4/ml) in BAL: Table 2. The method, then: (§1) In order to study modulation of airway inflammation, males BALB/c mice of 6 to 8 weeks old were sensitized by intraperitoneal injection of 10 μg ovalbumin (OVA) (Sigma Aldrich, Schnelldorf, Germany) emulsified in aluminum hydroxyde (AlumInject; Perbio, Erembodegem, Belgium) on days 1 and 8. Mice were subsequently exposed to allergens by daily inhalation of an aerosol of OVA 1%, for 30 minutes, generated by ultrasonic nebulizer (Devilbiss 2000), from day 21 to 27. Mice were subjected to inhalation of β-CD, HP-β-CD HP 1, 7.5, 50 mM and HP-β-CD 50 mM 30 minutes before OVA inhalation. Mice were sacrificed performed on day 28 as previously reported by Cataldo and al in Am. J. Pathol 2002; 161(2):491-498.
Immediately after assessment of airway responsiveness, and 24 hours after the last allergen exposure.
Mices were sacrificed and a bronchoalveolar lavage was performed using 4×1 ml PBS-EDTA 0.05 mM (Calbiochem, Darmstadt, Germany) as previously described by Cataldo D D, Tournoy K G, Vermaelen K et al. in Am J Pathol 2002; 161(2):491-498. Cells were recovered by gentle manual aspiration. After centrifugation of bronchoalveolar fluid (BALF) (1200 rpm for 10 minutes, at 4° C.), the supernatant was frozen at −80° C. for protein assessment and the cell pellet was resuspended in 1 ml PBS-EDTA 0.05 mM. The differential cell counts were performed on cytocentrifuged preparations (Cytospin) after staining with Diff-Quick (Dade, Belgium).

Experiment [2] deals with CXCL-1. The experiment can be described thus: CXCL-1 ELISA in lung protein extracts, OVA-induced inflammation model. The experiment is classed as in vivo, mouse. To be noted: aerosolized 15 mM, vs placebo-exposed mice, FIG. 12. As to the method:
In ovalbumin (OVA)-induced inflammation model, mice were immunized by intraperitoneal injection of OVA (10 μg) (Sigma Aldrich, Schnelldorf, Germany) and aluminium hydroxyde on days 0 and 7. From days 21 to 25, mice were exposed to inhalation of 1% OVA or PBS (phosphate buffer saline) for 30 minutes. Airway hyperresponsiveness was measured on day 26 before sacrifice. Mice were either exposed to aerosolized hydroxypropyl-beta-cyclodextrin (15 mM) or PBS for […] 6 hours before allergen exposure.
After sacrifice, thorax was opened and the right lungs were excised and snap frozen in liquid nitrogen for protein extraction. The left lung was insufflated at constant pressure with 4% paraformaldehyde and embedded in paraffin for further histological analysis. A peribronchial inflammation score was applied on each hematoxylin-eosin stained slide as previously reported (Cataldo et al Am J Pathol 2002). A value from 0 to 2 was adjudged to each bronchus. […] Six bronchi per mice were counted and statistical analysis was performed by using GraphPad Program. […] ELISA for CXCL-1 on lung protein extracts were assessed using antibodies from R&D Systems and the R&D Duoset® Elisa Development kit (R&D Systems, Minneapolis, Minn., USA).

The test system of experiment [3] is Eotaxin. The experiment can be described thus: Eotaxin ELISA in lung protein extracts, OVA mouse model. In kind it is in vivo. As to conditions: all doses tested, compared to placebo; FIG. 7a. As to the method:
as §1
The left lung was crushed using a Mikro-Dismembrator (Braun Biotech International, Gmbh Melsungen, Germany). For proteins extraction, the crushed lung tissue was incubated overnight at 4° C. in a solution containing 2M urea, 1M NaCl and 50 mM Tris (pH 7.5) and subsequently centrifuged 15 minutes at 16.000×g. […]
Eotaxin and IL-13 levels were assessed using commercial ELISAs (R&D systems, Abingdon, UK). Eotaxin was measured by incubation in a wheel coated with a primary antibody specifically dedicated to the recognition of the protein and after rinsing, a second antibody against eotaxin, coupled with horse radish peroxydase was used to quantify the amounts of eotaxin in the solution

Consider hydroxypropyl-βcyclodextrin [HP-β-CD], for which the BAL eosinophils result in experiment [1] (1, 7.5 and 50 mM inhalation, FIG. 1) was “dose dependent decrease”. In addition, in experiment [1] (1 mM), the “Eosinophils (%) in BAL” value came to 34.2 ± 7.705 %, the “Epithelial cells (%) in BAL” value was 25.08 ± 3.413%, the “Lymphocytes (%) in BAL” value is recorded as 0.48 ± 0.1869% and the “Macrophages (%) in BAL” value came out at 39.75 ± 5.427%. Besides, in experiment [1] (1 mM), the “Neutrophils (%) in BAL” value is recorded as 0.36 ± 0.1563% and the “Total cells (10^4/ml) in BAL” value is reported as 74.92 ± 14.396 10^4/ml. Also, in experiment [1] (10 mM), the “Eosinophils (%) in BAL” value amounted to 27.24 ± 4.98 %, the “Epithelial cells (%) in BAL” value is listed as 34.44 ± 3.723%, the “Lymphocytes (%) in BAL” value was 0.21 ± 0.08571% and the “Macrophages (%) in BAL” value turned out to be 37.114 ± 3.878%. Moreover, in experiment [1] (10 mM), the “Neutrophils (%) in BAL” value came to 0.83 ± 0.5838% and the “Total cells (10^4/ml) in BAL” value is recorded as 114.43 ± 33.245 10^4/ml. In experiment [1] (50 mM), the “Eosinophils (%) in BAL” value was determined as 12.18 ± 4.366 %, the “Epithelial cells (%) in BAL” value was 45.04 ± 5.534%, the “Lymphocytes (%) in BAL” value amounted to 0.12 ± 0.12% and the “Macrophages (%) in BAL” value came to 41.86 ± 9.043%. For the same substance, in experiment [1] (50 mM), the “Neutrophils (%) in BAL” value is 0.72 ± 0.3992% and the “Total cells (10^4/ml) in BAL” value is listed as 37.33 ± 10.683 10^4/ml. Further, the BAL eosinophil counts result in experiment [1] (after allergen exposure, inhalation at 50 mM, FIG. 1) is recorded as “significantly decreased”. In addition, in experiment [1] (after inhalation, compared to placebo), the “Other inflammatory cells in the BAL” value is on record as “not present in different amounts”. The “Levels of CXCL-1 in lung protein extracts” value in experiment [2] was “significantly decreased”. Besides, the “levels of eotaxin in lung protein extracts” value in experiment [3] was “decrease”.
